Reference: PubChem BioAssay (NCI)
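Tested at 5 concentrations; 48 h exposure; 96-well plates; endpoints linearly interpolated, else capped at highest concentration. The concentration for 50% growth inhibition is given as GI50. Definition used: TGI = concentration required for complete inhibition of growth.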

Columns and labels:
Experiment in all cases: NCI tumour cell line growth inhibition, 48 h
[1] = test system: U251 CNS
[2] = test system: OVCAR-4 ovarian
[3] = test system: K-562 leukemia
[4] = test system: SNB-19 CNS
[5] = test system: IGROV1 ovarian
[6] = test system: RPMI-8226 leukemia
[7] = test system: OVCAR-3 ovarian
[8] = test system: SK-OV-3 ovarian
[9] = test system: SN12C renal
[10] = test system: KM20L2 colon
[11] = test system: XF 498 CNS

SMILES | TGI [1] | TGI [2] | TGI [3] | TGI [4] | TGI [5] | TGI [6] | TGI [7] | TGI [8] | TGI [9] | TGI [10] | TGI [11] | GI50 [1] | GI50 [2] | GI50 [3] | GI50 [4] | GI50 [5] | GI50 [6] | GI50 [7] | GI50 [8] | GI50 [9]
C=C1CC2(C)CCC(OC(=O)C3(C)OC3C)C(C)(OC(C)=O)C2CC1=C(C)C (stereo not given) | > 100 µM | > 100 µM | > 100 µM | > 100 µM | > 100 µM | > 100 µM | > 100 µM | > 100 µM | > 100 µM |  |  |  |  |  |  |  |  |  |  | 
COc1ccc2c(c1)C(=O)/C(=C/c1ccccc1)C2 | > 100 µM | > 100 µM | > 100 µM | > 100 µM | > 100 µM | > 100 µM | > 100 µM | > 100 µM | > 100 µM |  |  |  |  |  |  |  |  |  |  | 
COc1cc(CN(C)N2C(=O)c3cccc4cc([N+](=O)[O-])cc(c34)C2=O)cc(OC)c1OC | > 100 µM | > 100 µM | > 100 µM | > 100 µM | > 100 µM | > 100 µM | > 100 µM | > 100 µM | > 100 µM |  |  |  |  |  |  |  |  |  |  | 
O=c1n(Cc2ccccc2)c2ccccc2n1CC1CS1 (stereo not given) |  | > 100 µM | > 100 µM | > 100 µM | > 100 µM | > 100 µM | > 100 µM | > 100 µM | > 100 µM | > 100 µM | > 100 µM |  |  |  |  |  |  |  |  | 
CCNc1nc2c(=O)n(C)c(=O)n(C)c2s1 | > 100 µM | > 100 µM | > 100 µM | > 100 µM | > 100 µM | > 100 µM | > 100 µM | > 100 µM | > 100 µM | > 100 µM | > 100 µM |  |  |  |  |  |  |  |  | 
CC12CCC3C(CCC4(O)C=CCCC34C=O)C1(O)CC(O)C2c1ccc(=O)oc1 (stereo not given) | 0.197 µM | 0.102 µM | 1.29 µM | 0.527 µM | 0.35 µM | 0.839 µM | 0.0939 µM | 0.248 µM | 0.199 µM | 0.267 µM | 0.158 µM |  |  |  |  |  |  |  |  | 
Cc1cc(C)c(S(=O)(=O)N(CCCCCCN)OCCCON(CCCCCCN)S(=O)(=O)c2c(C)cc(C)cc2C)c(C)c1 | 3.15 µM | 3.38 µM | > 100 µM | 3.01 µM | 3.22 µM |  | 3.34 µM | 3.37 µM | 3.89 µM |  |  |  |  |  |  |  |  |  |  | 
CCOC(=O)c1csc(NC(=O)CCN2CCOCC2)n1 | > 100 µM | > 100 µM | > 100 µM | > 100 µM | > 100 µM | > 100 µM | > 100 µM | > 100 µM |  |  |  |  |  |  |  |  |  |  |  | 
O=C(NC/C=C/CO)c1ccccc1 | > 100 µM | > 100 µM | > 100 µM | > 100 µM | > 100 µM | > 100 µM | > 100 µM | > 100 µM | > 100 µM | > 100 µM | > 100 µM |  |  |  |  |  |  |  |  | 
COc1ccc(-c2nnc3c4ccccc4sn23)cc1 | > 100 µM | > 100 µM | > 100 µM | > 100 µM | > 100 µM | > 100 µM | 61.5 µM |  | > 100 µM | > 100 µM |  |  |  |  |  |  |  |  |  | 
Fc1cc(C2=Nn3c(nnc3-c3cc(F)c(Cl)cc3Cl)SC2)c(Cl)cc1Cl | 64 µM | > 100 µM | > 100 µM | 93.4 µM | > 100 µM | 35 µM | 46.9 µM | > 100 µM | 55.7 µM |  |  | 20.4 µM | 34.5 µM | 17.8 µM | 22.7 µM | 29.8 µM | 6 µM | 11.5 µM | 29.2 µM | 18.4 µM
O=C1CNC(=O)N1 | > 1120 µM | > 1120 µM | > 630 µM | > 1120 µM | > 1120 µM | > 1120 µM | > 1120 µM | > 1120 µM | > 1120 µM | > 1120 µM | > 11.2 µM |  |  |  |  |  |  |  |  | 
CC1(C)CCCC2(C)[C@@H]1CC[C@]13C[C@](C)(CC[C@@H]21)[C@@H]3CO (stereo not given in full) | > 100 µM | > 100 µM | > 100 µM | > 100 µM | > 100 µM | > 100 µM | > 100 µM | > 100 µM | > 100 µM | > 100 µM | > 100 µM |  |  |  |  |  |  |  |  | 
